According to PMC11022729 (Advanced Science, 2024):
Where “and” joins values, the source holds several entries; their conditions need not be identical. Identical values can stand only once.

Target: T1, human Slack (Homo sapiens, UniProt Q5JUK3)
T1 construct: host or cells: HEK293
T1 sequence (Q5JUK3 1-1230): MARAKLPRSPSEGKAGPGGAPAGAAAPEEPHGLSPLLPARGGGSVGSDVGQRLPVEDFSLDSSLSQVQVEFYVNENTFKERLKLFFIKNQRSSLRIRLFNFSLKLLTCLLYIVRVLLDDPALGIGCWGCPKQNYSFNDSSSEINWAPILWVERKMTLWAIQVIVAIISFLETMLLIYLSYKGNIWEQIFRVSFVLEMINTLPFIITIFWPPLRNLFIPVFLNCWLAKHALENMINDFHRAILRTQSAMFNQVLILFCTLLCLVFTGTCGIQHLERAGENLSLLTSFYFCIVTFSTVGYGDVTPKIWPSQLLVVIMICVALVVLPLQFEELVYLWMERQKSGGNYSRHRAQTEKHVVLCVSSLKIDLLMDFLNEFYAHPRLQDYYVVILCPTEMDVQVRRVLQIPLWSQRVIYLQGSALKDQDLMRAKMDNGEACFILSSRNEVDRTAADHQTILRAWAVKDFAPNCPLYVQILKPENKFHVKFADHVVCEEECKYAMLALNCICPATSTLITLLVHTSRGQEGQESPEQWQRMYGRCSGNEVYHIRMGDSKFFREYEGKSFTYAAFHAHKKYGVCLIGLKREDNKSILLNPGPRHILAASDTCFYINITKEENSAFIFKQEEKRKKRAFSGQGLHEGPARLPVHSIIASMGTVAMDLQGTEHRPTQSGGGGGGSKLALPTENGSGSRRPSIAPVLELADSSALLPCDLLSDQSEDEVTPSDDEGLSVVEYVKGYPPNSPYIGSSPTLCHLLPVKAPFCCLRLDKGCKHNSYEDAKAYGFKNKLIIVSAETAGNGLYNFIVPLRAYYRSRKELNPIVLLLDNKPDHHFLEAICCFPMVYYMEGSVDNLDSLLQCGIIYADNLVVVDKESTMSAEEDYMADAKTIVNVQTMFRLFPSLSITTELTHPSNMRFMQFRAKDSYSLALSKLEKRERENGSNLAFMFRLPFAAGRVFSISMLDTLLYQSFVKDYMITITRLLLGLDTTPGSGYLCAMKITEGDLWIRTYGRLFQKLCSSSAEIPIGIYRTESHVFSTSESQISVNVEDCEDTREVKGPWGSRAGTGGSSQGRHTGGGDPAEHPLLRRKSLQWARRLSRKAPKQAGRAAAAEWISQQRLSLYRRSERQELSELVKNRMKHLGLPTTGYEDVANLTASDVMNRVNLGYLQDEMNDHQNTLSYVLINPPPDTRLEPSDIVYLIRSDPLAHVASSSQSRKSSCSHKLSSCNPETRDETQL
Assay: FluxOR potassium ion channel assay in HEK-Slack cells
Format: cell-based
Description: The functional activity of this series of compounds against human Slack was determined using a cell‐based FluxOR potassium ion channel assay in cultured HEK293 cells stably expressing human Slack (herein referred to as HEK‐Slack cells) and a Na^+‐free assay buffer to prevent compound‐independent Slack activation by monovalent cations.^[ [14], [24] ^] […] Of the 114 newly synthesized compounds, 31 acted as Slack activators to varying extents. Accordingly, we deemed eight of these as the most interesting candidates.
To determine the Slack‐activating efficacy and potency of the novel compounds, a commercial FluxOR potassium ion channel assay (#10 017; Invitrogen) was used. HEK‐Slack cells were plated at a density of 50 000 cells per well on a poly‐D‐lysine coated (75 µg mL^−1, Sigma–Aldrich) 96‐well, black‐walled microplate with clear bottom (#655 090; Greiner Bio‐One) in DMEM (100 µL per well) containing 10% FBS and 1% penicillin/streptomycin 24 h prior to assaying. In the initial experiments shown in Figure S3A–F (Supporting Information), HEK‐Slack cells were plated at a density of 100 000 cells/well 48 h prior to the assay. On the day of the experiment, the cells were loaded with FluxOR dye according to the manufacturer's protocol. A Na^+‐free assay buffer, adjusted to pH 7.4 with KOH, containing 140 mM choline chloride, 5 mM KCl, 2 mM CaCl2, 2 mM MgSO4, 10 mM HEPES, and 5.55 mM glucose was used. To reduce background fluorescence, all assay components were complemented with a 10% BackDrop Background Suppressor (#B10511; Invitrogen).
All compounds were prepared as a 333 mM stock in DMSO and diluted on the experimental day to a final concentration of 100, 50, 25, 12.5, 6.25, 3.125, or 1.5625 µM in an assay buffer with DMSO adjusted to 0.03%. Before treatment, the cells were washed, and the medium was exchanged for the assay buffer. In a total volume of 90 µL per well, the cells were then incubated for 30 min at 37 °C with compounds at the indicated concentrations, or 0.03% DMSO alone as the vehicle. […] Fluorescence was measured using an Infinite M200 microplate reader (Tecan) with excitation at 485 nm (9 nm bandwidth) and emission at 525 nm (20 nm bandwidth) in the bottom read mode. First, the baseline fluorescence of the individual wells was established. Thereafter cells were stimulated with 20 µL Tl2SO4 (5 mM) solution injected at 100 µL s^−1, and fluorescence was further recorded for 100 s. Assays were run in triplicate. For all time points, the ratio of fluorescence to baseline fluorescence was calculated first for individual wells, and the average was then used.
Dose‐response curves comprising six concentrations were obtained in triplets using fluorescence/fluorescenceBaseline ratios at the 100th s.

[1] = HEK-Slack cells, Na+-free assay buffer, mean (95% confidence interval)

Structure (SMILES)	Emax	EC50 [1]	EC50 (first preliminary experiments, Na+-free buffer with 2 mM Ca2+, 2 mM Mg2+ and 0.03% DMSO)
O=C(O)COCCN1CCN(C2=Nc3ccccc3Oc3ccc(Cl)cc32)CC1 [Compound 6]	96.2%	30 µM and 30.3 µM	–
CN1CCN(C2=Nc3ccccc3Oc3ccc(Cl)cc32)CC1 [Loxapine, reference compound]	100%	20.7 µM	23.4 µM
